Measurements: publication PMC7615751, “Anionic liposome formulation for oral delivery of thuricin CD, a potential antimicrobial peptide therapeutic” (International journal of pharmaceutics, 2024)

Tests used:
[1] = FaSSIF vs PBS; ref Ryan et al., 2021; cited from earlier work
Text: The pH in FaSSIF is 6.5, and the pI of Trn α and Trn β is close to 4, so the thuricin CD peptides should both be slightly negatively charged in this solution (ExPASy, 2022), helping their dissolution in this medium. Also, it has been previously reported that lacticin 3147, a two peptide bacteriocin with similar ...

[2] = tested on: L. monocytogenes ATCC 1916; assay: Bioactivity of dissolved thuricin CD (MIC50, growth curves at OD 590 nm); format: cell-based; details: 24 h, 37 °C
Procedure: For this study, L. monocytogenes was used as an indicator strain. The minimum inhibitory concentration MIC50 was determined based on the protocol previously described by Mathur et al. ([Mathur, et al., 2017]). MIC50 was established as the concentration of peptides that inhibited 50 % of growth of L. monocytogenes ATCC 1916 ([Rea, 2010]).
Briefly, 1 mg/mL stock solutions of freeze-dried Trnα and Trnβ resuspended in 70 % IPA 0.1 % TFA in water were diluted in sterile PBS to a final concentration of 100 μg/mL (dissolved thuricin). For all the experiments in this, and the following sections, a 1:1 M ratio of Trn α: Trn β was used. The corresponding volumes of each peptide to reach 250 nM of each peptide (0.69 μg/mL Trn α + 0.72 μg/mL Trn β), 500 nM of each peptide (1.38 μg/mL Trn α + 1.43 μg/mL Trn β), 1 μM of each peptide (2.76 μg/mL Trn α + 2.86 μg/mL Trn β), and 2 μM of each peptide (5.53 μg/mL Trn α + 5.72 μg/mL Trn β) in the final well volume were added in triplicate to a 96 well plate. […] L. monocytogenes ATCC 1916 was grown in BHI broth shaking overnight at 37 °C. 150 μL of 10^5 CFU/mL bacterial culture was added to the wells with sample. Blanks were set up in triplicate with only PBS and media as well as a control containing buffer and bacterial culture. The plate was incubated in a Biotek ELx808 Ultra microplate reader at 37 °C for 24 h. Readings were taken every 30 min at 590 nm. […]

pepsin [3] = target: T1, pepsin (Sus scrofa, UniProt P00791); assay: Enzymatic degradation of dissolved thuricin CD by pepsin (residual antibacterial activity); format: in vitro ADME; details: 5.6 μg/mL Trn α + 5.8 μg/mL Trn β
T1 construct: purchased Sigma Aldrich Ireland Ltd
Procedure: Trn α and Trn β stock solutions (1 mg/mL in 70 % IPA 0.1 % TFA in water) were filter sterilized and diluted to a final concentration of 100 μg/mL in sterile PBS. Pepsin activity was evaluated beforehand according to the haemoglobin assay, based on the principle that haemoglobin in water produces tyrosine peptides soluble in trichloroacetic acid (TCA) when pepsin is applied ([Brodkorb, 2019]). The activity units (AU or μmol/min), defined as the quantity of the enzyme that converts one micromole of substrate per minute, were determined before this test. Pepsin was suspended in cold 0.01 M HCl pH 2 reaching 824 activity units per mL. Trn α and Trn β were added to the same well of a 96-well plate in triplicate to give a final concentration of 5.6 μg/mL and 5.8 μg/mL respectively. […] 25 μL of pepsin solution was also added to each of the wells. This gave a final pepsin concentration/activity of 1.2 mg/mL or 98.8 AU/mL, which is the approximate concentration of enzyme present in the human stomach ([Liu, 2015]). Thuricin alone and pepsin alone were included as control samples with the bacterial culture. Blanks were set up in triplicate with PBS, 0.01 M HCl, and media only (BHI). […] The plate was incubated in a BioTek ELx808 Ultra microplate reader at 37 °C for 24 h at a wavelength of 590 nm. Readings were taken every 30 min for 24 h with the plate shaken mildly before each reading.

trypsin = target: T2, trypsin (Sus scrofa, UniProt P00761); assay: Enzymatic degradation of dissolved thuricin CD by trypsin (residual antibacterial activity); format: in vitro ADME; details: 4.4 μg/mL Trn α + 4.4 μg/mL Trn β; 19.3 μg/ml trypsin; 3 h, 37 °C; then growth curve 24 h, OD 590 nm; triplicate
T2 construct: purchased Sigma Aldrich Ireland Ltd
Procedure: (§1) Trn α and Trn β stock solutions (1 mg/mL in 70 % IPA 0.1 % TFA in water) were filter sterilized and diluted to a final concentration of 100 μg/mL in sterile PBS. Pepsin activity was evaluated beforehand according to the haemoglobin assay, based on the principle that haemoglobin in water produces tyrosine peptides soluble in trichloroacetic acid (TCA) when pepsin is applied ([Brodkorb, 2019]). The activity units (AU or μmol/min), defined as the quantity of the enzyme that converts one micromole of substrate per minute, were determined before this test. Pepsin was suspended in cold 0.01 M HCl pH 2 reaching 824 activity units per mL. Trn α and Trn β were added to the same well of a 96-well plate in triplicate to give a final concentration of 5.6 μg/mL and 5.8 μg/mL respectively. […] The plate was incubated in a BioTek ELx808 Ultra microplate reader at 37 °C for 24 h at a wavelength of 590 nm. Readings were taken every 30 min for 24 h with the plate shaken mildly before each reading.
(§2) A similar procedure was followed for trypsin and chymotrypsin, but different concentrations were used, and incubation time was 3 h. […] Trypsin activity units were determined by a previously established assay based on the principle that p-toluene-sulfonyl-l-arginine methyl ester (TAME) in water produces p-toluene-sulfonyl-L-arginine plus methanol when trypsin is applied ([Brodkorb, 2019]). […]

α-chymotrypsin = target: T3, α-chymotrypsin (Bos taurus, UniProt P00766); assay: Enzymatic degradation of dissolved thuricin CD by α-chymotrypsin (residual antibacterial activity); format: in vitro ADME; details: 4.4 μg/mL Trn α + 4.4 μg/mL Trn β; 19.3 μg/ml α-chymotrypsin; 3 h, 37 °C; then growth curve 24 h, OD 590 nm; triplicate
T3 construct: purchased Sigma Aldrich Ireland Ltd
Procedure: as §1, §2

[4] = tested on: L. monocytogenes ATCC 1916; assay: Solution behaviour / activity of free thuricin CD in FaSSIF without enzymes; format: cell-based; details: free thuricin suspended from solid in FaSSIF pH 6.5, 37 °C, 0.2 μm filtered, growth curve 24 h, triplicate
Procedure: (§3) Fasted state simulated intestinal fluid (FaSSIF) and fasted state simulated gastric fluid (FaSSGF) were prepared using Biorelevant FaS-SIF/FaSSGF powder following the manufacturer’s instructions. Briefly, for FaSSIF, 0.21 g NaOH, 1.72 g sodium phosphate monobasic and 3.10 g NaCl were diluted in 400 mL distilled water. The solution was stirred until dissolved. The pH was then adjusted to 6.5 with 0.1 M HCl. 1.12 g FaSSIF powder was added and finally, the volume was topped up to 500 mL. For FaSSGF, 2 g NaCl was dissolved in 900 mL distilled water. The pH was adjusted to 1.6 with 1 M HCl.
Trn α and Trn β solutions at concentrations of 0.5 mg/mL in FaSSGF/FaSSIF were suspended directly from lyophilised powder (free thuricin). Further dilutions were carried out to reach concentrations of 2 times, 5 times and 10 times the MIC50 in the final volume to be used for the experiment. The suspensions were distributed in different microtubes and incubated at 37 °C, 300 rpm in an incubator for 0.5 h. An aliquot of each concentration was taken, and filter sterilized with a 0.2 μm PES filter. 50 μL of each sterile solution was transferred to a 96-well microtiter plate in triplicate. Each well was filled with 150 μL of a L. monocytogenes culture at an OD of 0.1. A control was set with 50 μL of FaSSGF/FaSSIF and 150 μL culture. The plate was incubated in a Biotek ELx808 Ultra microplate reader at 37 °C for 24 h at a wavelength of 590 nm. Readings were taken every 30 min for 24 h with the plate shaken mildly before each one. The readings collected from those samples were considered as time 0. In the meantime, the microtubes were put back in the incubator with reduced shaking. After 1, 4 and 24 h a new aliquot was taken, and the same protocol was followed for activity testing.

[5] = tested on: L. monocytogenes ATCC 1916; assay: Solution behaviour / activity of free thuricin CD in FaSSGF without enzymes; format: cell-based
Procedure: as §3
Trn α and Trn β solutions at concentrations of 0.5 mg/mL in FaSSGF/FaSSIF were suspended directly from lyophilised powder (free thuricin). Further dilutions were carried out to reach concentrations of 2 times, 5 times and 10 times the MIC50 in the final volume to be used for the experiment. The suspensions were distributed in different microtubes and incubated at 37 °C, 300 rpm in an incubator for 0.5 h. An aliquot of each concentration was taken, and filter sterilized with a 0.2 μm PES filter. […] The plate was incubated in a Biotek ELx808 Ultra microplate reader at 37 °C for 24 h at a wavelength of 590 nm. Readings were taken every 30 min for 24 h with the plate shaken mildly before each one. The readings collected from those samples were considered as time 0. […]

[6] = tested on: L. monocytogenes ATCC 1916; assay: Biological activity of Trn αβ loaded liposomes vs free thuricin CD in acetate buffer; format: cell-based; details: 1.25 and 2.50 μg/mL of each peptide, 37 °C, 24 h, OD 590 nm, triplicate
Procedure: The activity of Trn αβ liposomes was evaluated following the methodology previously described for thuricin CD. Briefly, the liposome suspension was filtered with a 0.45 μm PES sterile filter. Different volumes of the sterile liposome suspension were added to reach final concentrations of Trn α and Trn β of 1.25 and 2.50 μg/mL in each well. Samples were tested in triplicate. […] 150 μL of 10^5 CFU/mL L. monocytogenes ATCC 1916 culture was added to the wells with sample. Blanks were set up in triplicate with only media, the corresponding blank liposome suspension volume, and PBS. Controls contained inoculated media and PBS. The plate was incubated in a BioTek ELx808 Ultra microplate reader at 37 °C for 24 h. Readings were taken every 30 min at 590 nm. The same procedure was followed for free thuricin (freeze dried thuricin powder directly suspended in acetate buffer).

pepsin [7] = target: T1, pepsin; assay: Biological activity after incubation in FaSSGF with pepsin; format: in vitro ADME; details: dissolved Trn α and β, 1.2 mg/mL pepsin in FaSSGF, 30 min, 37 °C; double the MIC50; L. monocytogenes growth curve 24 h
Procedure: The activity of αβ liposome suspension and dissolved αβ peptides after exposing both to FaSSGF with pepsin and FaSSIF without pancreatin was analysed. No pancreatin was added to FaSSIF because it inhibitied L. monocytogenes growth itself. Trn αβ loaded liposome suspension or dissolved thuricin (thuricin powder in 70 % IPA 0.1 % TFA in water and further diluted in acetate buffer) + pepsin in FaSSGF were prepared as described in the previous section. Control samples with acetate buffer + pepsin in FaSSGF were also prepared.
After 30 min incubation, pepsin was deactivated by heating the samples at 70 °C for 10 min. The volume necessary to reach a concentration of double the MIC50 of thuricin peptides was added to a 96-well plate. The wells were topped to 50 μL with PBS. 150 μL of 10^5 CFU/mL bacterial cell culture (L. monocytogenes) was added to each well. Blanks were set with media and control samples. The plate was incubated in a BioTek ELx808 Ultra microplate reader at 37 °C for 24 h at a wavelength of 590 nm. Readings were taken every 30 min for 24 h with the plate shaken mildly before each reading.

Caco-2 cells = assay: Presto blue cytotoxicity assay; format: cell-based; details: 5 μg/mL Trn α + 5 μg/mL Trn β, 24 h, 37 °C, absorbance 570 nm
Procedure: The biocompatibility of Trn αβ liposome suspension and dissolved thuricin CD with intestinal epithelial cells were tested. Caco-2 cells were grown in high glucose Dulbecco’s modified Eagle’s medium supplemented with 10 % fetal bovine serum, 1 % L-Glutamine, 1 % pen-strep, and 1 % non-essential amino acids at 37 °C, with 5 % CO2 and 95 % relative humidity. Approximately 10,000 cells were seeded per well in a 96-well plate. The plate was incubated overnight to ensure the cells adhered to the wells. The media was removed from the wells and filter-sterilized dissolved thuricin CD and Trn αβ liposome suspension samples at a final concentration of 5 μg/mL of each peptide were added 1:1 (v/v) with fresh media. Control wells were included by adding blank liposomes and just media to the cells. The plate was incubated for 24 h at 37 °C, with 5 % CO2 and 95 % relative humidity. The media was removed from the wells, 10 μL Presto blue +90 μL fresh media was added to each well and left incubating for 60 min. Finally, the absorbances of the solutions in the plate were read at 570 nm and plotted for all samples.

[8] = cell-free supernatants; ref Rea, 2010; cited from earlier work
Text: However, because of their peptide nature, bacteriocins are susceptible to degradation, aggregation, and precipitation in the body, and can show low solubility and poor permeability ([Flynn et al., 2021]). Previous reports have evaluated the heat and pH stability of thuricin CD cell-free supernatants. […] Activity was also maintained in a pH range of 2 to 9 ([Rea, 2010]). Neither quantitative nor qualitative data on the solubility of thuricin in biorel ...

T1 sequence (P00791 60-385): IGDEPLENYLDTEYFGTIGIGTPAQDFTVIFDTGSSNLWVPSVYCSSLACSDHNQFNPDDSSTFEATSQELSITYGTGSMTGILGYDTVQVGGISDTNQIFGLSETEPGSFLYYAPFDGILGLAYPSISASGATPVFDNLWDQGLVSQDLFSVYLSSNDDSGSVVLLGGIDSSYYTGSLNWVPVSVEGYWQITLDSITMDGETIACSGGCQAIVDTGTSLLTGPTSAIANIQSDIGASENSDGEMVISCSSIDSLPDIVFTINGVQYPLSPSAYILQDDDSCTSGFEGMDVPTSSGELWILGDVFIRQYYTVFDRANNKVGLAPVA
T2 sequence (P00761 9-231): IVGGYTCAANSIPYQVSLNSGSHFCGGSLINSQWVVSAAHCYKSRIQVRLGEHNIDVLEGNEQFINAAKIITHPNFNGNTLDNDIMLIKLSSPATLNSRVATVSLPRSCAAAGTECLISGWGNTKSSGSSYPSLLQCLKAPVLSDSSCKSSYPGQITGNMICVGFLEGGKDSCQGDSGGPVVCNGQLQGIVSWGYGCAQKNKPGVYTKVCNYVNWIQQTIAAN

lacticin 3147
solubility in FaSSIF [1]: improved solubility in FaSSIF compared to PBS

thuricin CD
effect on bacterial growth ([2]; 0.25 μM of each peptide): could not significantly inhibit bacterial growth
inhibition of bacterial growth ([2]; 0.5 μM of each peptide, 1:1 M ratio): approximately 50%
activity against L. monocytogenes ATCC 1916 after exposure to pepsin (pepsin [3]; pepsin 1.2 mg/mL (98.8 AU/mL), 0.01 M HCl pH 2/PBS, 1.5 h, 37 °C, 70 rpm, then growth curve 24 h, OD 590 nm, triplicate): deactivated
time for which bacterial growth was inhibited, thuricin alone (no enzyme) (pepsin [3]; positive control without pepsin, incubated 1.5 h at 37 °C before culture, growth curve 24 h): ~17 h
activity against L. monocytogenes ATCC 1916 after exposure to trypsin (trypsin): retained its activity
activity against L. monocytogenes ATCC 1916 after exposure to α-chymotrypsin (α-chymotrypsin): growth comparable to the control
activity after addition of lyophilised powder to FaSSIF, five times the MIC50 ([4]; all time points 0–24 h): activity is observed
activity after addition of lyophilised powder to FaSSIF, ten times the MIC50 ([4]; all time points 0–24 h): activity is observed
activity after addition of lyophilised powder to FaSSIF, double the MIC50 ([4]; time points 0, 1, 4, 24 h): no activity is observed
activity of peptides pre-dissolved in 70 % IPA 0.1 % TFA in water and diluted in FaSSGF ([5]; 2, 5 and 10 times the MIC50, 1:1 molar ratio, FaSSGF pH 1.6 (Figure S3)): retained thuricin CD activity
activity after addition of lyophilised powder to FaSSGF ([5]; free thuricin suspended from solid in FaSSGF pH 1.6, 37 °C, x2, x5, x10 MIC50, 0, 1, 4, 24 h, 0.2 μm filtered, growth curve 24 h, triplicate): no activity was detected
activity of lyophilised peptides directly suspended in acetate buffer [6]: do not demonstrate any activity
activity after exposure to pepsin in FaSSGF (pepsin [7]): completely lost activity
cytotoxicity: absorbance compared to the control group of living cells (Caco-2 cells): none of the samples exhibited any significant difference in absorbance
heat stability at 85 °C [8]: stable
heat stability at 90 °C [8]: reducing its activity
heat stability at 100 °C [8]: complete activity loss
